The term IC50 denotes the point on the concentration scale where inhibition reaches its midpoint.

For this test, the target named is CD73 (Homo sapiens (Human), UniProt P21589). Description: Biochemical assay: inhibition of CD73 activity (AMP hydrolysis, Malachite Green readout). The conditions noted are these: CD73 0.3208 nM, AMP 15 μM, 25 mM Tris-HCl pH 7.4, RT, absorbance 620 nm. The gist of the method: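 Human CD73 (320 pM final) preincubated 15 min at RT with compounds (10-point ½-log titration from 100 μM, duplicates) in 25 mM Tris-HCl pH 7.4, 5 mM MgCl2, 0.01% Brij-35, 0.01% BSA. 15 μM AMP added, 10 min at RT; released phosphate read by Malachite Green absorbance; IC50 determined.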
Sequence of CD73 (P21589 27-574): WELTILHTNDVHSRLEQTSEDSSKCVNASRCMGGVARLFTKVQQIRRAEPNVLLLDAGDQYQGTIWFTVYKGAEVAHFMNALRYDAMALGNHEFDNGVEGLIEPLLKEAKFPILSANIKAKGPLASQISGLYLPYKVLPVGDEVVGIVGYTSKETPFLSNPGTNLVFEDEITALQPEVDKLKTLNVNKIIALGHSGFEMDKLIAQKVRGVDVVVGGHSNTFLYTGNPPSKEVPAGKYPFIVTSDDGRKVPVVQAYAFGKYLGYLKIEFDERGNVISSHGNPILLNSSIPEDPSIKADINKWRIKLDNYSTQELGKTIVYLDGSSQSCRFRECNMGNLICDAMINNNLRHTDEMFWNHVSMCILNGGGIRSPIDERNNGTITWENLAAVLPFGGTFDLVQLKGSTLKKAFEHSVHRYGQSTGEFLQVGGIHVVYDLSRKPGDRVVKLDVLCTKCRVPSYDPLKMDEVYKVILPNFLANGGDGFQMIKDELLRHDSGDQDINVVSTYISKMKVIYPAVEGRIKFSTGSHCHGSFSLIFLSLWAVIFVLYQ

For `O=P(O)(O)[C@](CO)(COCc1ccccc1)OC[C@H]1O[C@@H](n2ncc3c(NC4CCCC4)nc(Cl)nc32)[C@H](O)[C@@H]1O` (racemic) [Example 179, rac-((R)-1-(benzyloxy)-2-(((2R,3S,4R,5R)-5-(6-chloro-4-(cyclopentylamino)-1H-pyrazolo[3,4-d]pyrimidin-1-yl)-3,4-dihydroxytetrahydrofuran-2-yl)methoxy)-3-hydroxypropan-2-yl)phosphonic acid], the IC50 was ≤ 100 nM. With `C[C@@](CO)(OC[C@H]1O[C@@H](n2ncc3c(N[C@@H]4CCc5cc(F)ccc54)nc(Cl)nc32)[C@H](O)[C@@H]1O)P(=O)(O)O` [Example 122, ((R)-2-(((2R,3S,4R,5R)-5-(6-chloro-4-(((R)-5-fluoro-2,3-dihydro-1H-inden-1-yl)amino)-1H-pyrazolo[3,4-d]pyrimidin-1-yl)-3,4-dihydroxytetrahydrofuran-2-yl)methoxy)-1-hydroxypropan-2-yl)phosphonic acid] the figure was ≤ 100 nM; with `O=C(O)c1ccc(C[C@](CO)(OC[C@H]2O[C@@H](n3ncc4c(NC5CCCC5)nc(Cl)nc43)[C@H](O)[C@@H]2O)P(=O)(O)O)cc1` (racemic) [Example 188, rac-4-((R)-2-(((2S,3R,4S,5S)-5-(6-chloro-4-(cyclopentylamino)-1H-pyrazolo[3,4-d]pyrimidin-1-yl)-3,4-dihydroxytetrahydrofuran-2-yl)methoxy)-3-hydroxy-2-phosphonopropyl)benzoic acid], 100 to 1000 nM; with `O=P(O)(O)C(CO)(Cc1nn[nH]n1)OC[C@H]1O[C@@H](n2ncc3c(NC4CCCC4)nc(Cl)nc32)[C@H](O)[C@@H]1O` (stereo partly drawn) [Example 84, (2-(((2R,3S,4R,5R)-5-(6-Chloro-4-(cyclopentylamino)-1H-pyrazolo[3,4-d]pyrimidin-1-yl)-3,4-dihydroxytetrahydrofuran-2-yl)methoxy)-1-hydroxy-3-(2H-tetrazol-5-yl)propan-2-yl)phosphonic acid], ≤ 100 nM. Then `CC(CO)(OC[C@H]1O[C@@H](n2ncc3c(NC4CCCC4)nc(OCCO)nc32)[C@H](O)[C@@H]1O)P(=O)(O)O` (stereo partly drawn) [Example 68, (2-(((2R,3S,4R,5R)-5-(4-(cyclopentylamino)-6-(2-hydroxyethoxy)-1H-pyrazolo[3,4-d]pyrimidin-1-yl)-3,4-dihydroxytetrahydrofuran-2-yl)methoxy)-1-hydroxypropan-2-yl)phosphonic acid], with ≤ 100 nM. Take `C[C@@](CO)(OC[C@H]1O[C@@H](n2ncc3c(N[C@@H]4CC[C@H]5CCC[C@H]54)nc(Cl)nc32)[C@H](O)[C@@H]1O)P(=O)(O)O` (racemic) [Example 182, rac-((R)-2-(((2R,3S,4R,5R)-5-(6-chloro-4-(((1R,3aR,6aR)-octahydropentalen1-yl)amino)-1H-pyrazolo[3,4-d]pyrimidin-1-yl)-3,4-dihydroxytetrahydrofuran-2-yl)methoxy)-1-hydroxypropan-2-yl)phosphonic acid]: the IC50 is ≤ 100 nM. Then `CCOCC(C)(OC[C@H]1O[C@@H](n2ncc3c(NC4CCCC4)nc(Cl)nc32)[C@H](O)[C@@H]1O)P(=O)(O)O` (stereo partly drawn) [Example 156, (2-(((2R,3S,4R,5R)-5-(6-chloro-4-(cyclopentylamino)-1H-pyrazolo[3,4-d]pyrimidin-1-yl)-3,4-dihydroxytetrahydrofuran-2-yl)methoxy)-1-ethoxypropan-2-yl)phosphonic acid], with ≤ 100 nM; and `CC(CO)(OC[C@H]1O[C@@H](n2ncc3c(N[C@@H]4CCC45CCC5)nc(Cl)nc32)[C@H](O)[C@@H]1O)P(=O)(O)O` (stereo partly drawn) [Example 135, (2-(((2R,3S,4R,5R)-5-(6-chloro-4-(((R)-spiro[3.3]heptan-1-yl)amino)-1H-pyrazolo[3,4-d]pyrimidin-1-yl)-3,4-dihydroxytetrahydrofuran-2-yl)methoxy)-1-hydroxypropan-2-yl)phosphonic acid], with ≤ 100 nM. Take `COCC(OC[C@H]1O[C@@H](n2ncc3c(NC4CCCC4)nc(Cl)nc32)[C@H](O)[C@@H]1O)(C(=O)O)P(=O)(O)O` (mixture of isomers) [Example 221, rac-(R)-2-(((2R,3S,4R,5R)-5-(6-chloro-4-(cyclopentylamino)-1H-pyrazolo[3,4-d]pyrimidin-1-yl)-3,4-dihydroxytetrahydrofuran-2-yl)methoxy)-3-methoxy-2-phosphonopropanoic acid]: the IC50 was ≤ 100 nM. With `COCCOc1nc(NC2CCCC2)c2cnn([C@@H]3O[C@H](COC(C)(CO)P(=O)(O)O)[C@@H](O)[C@H]3O)c2n1` (stereo partly drawn) [Example 145, (2-(((2R,3S,4R,5R)-5-(4-(cyclopentylamino)-6-(2-methoxyethoxy)-1H-pyrazolo[3,4-d]pyrimidin-1-yl)-3,4-dihydroxytetrahydrofuran-2-yl)methoxy)-1-hydroxypropan-2-yl)phosphonic acid] the figure was ≤ 100 nM. As for `O=P(O)(O)C(OC[C@H]1O[C@@H](n2ncc3c(NC4CCCC4)nc(Cl)nc32)[C@H](O)[C@@H]1O)c1nnn[nH]1` (stereo partly drawn) [Example 35, ((((2R,3S,4R,5R)-5-(6-chloro-4-(cyclopentylamino)-1H-pyrazolo[3,4-d]pyrimidin-1-yl)-3,4-dihydroxytetrahydrofuran-2-yl)methoxy)(1H-tetrazol-5-yl)methyl)phosphonic acid], the IC50 was ≤ 100 nM. With `O=P(O)(O)CP(=O)(O)OC[C@H]1O[C@@H](n2nnc3c(NC4CCCC4)cc(Cl)nc32)[C@H](O)[C@@H]1O` [Example 53, (((((2R,3S,4R,5R)-5-(5-chloro-7-(cyclopentylamino)-3H-[1,2,3]triazolo[4,5-b]pyridin-3-yl)-3,4-dihydroxytetrahydrofuran-2-yl)methoxy)(hydroxy)phosphoryl)methyl)phosphonic acid] the figure was ≤ 100 nM; with `O=C(O)C(OC[C@H]1O[C@@H](n2ncc3c(NC4CCCC4)nc(Cl)nc32)[C@H](O)[C@@H]1O)P(=O)(O)O` (stereo partly drawn) [Example 28, 2-(((2R,3S,4R,5R)-5-(6-chloro-4-(cyclopentylamino)-1H-pyrazolo[3,4-d]pyrimidin-1-yl)-3,4-dihydroxytetrahydrofuran-2-yl)methoxy)-2-phosphonoacetic acid], ≤ 100 nM. Then `COC[C@](C)(OC[C@H]1O[C@@H](n2ncc3c(NCC4CC4)nc(Cl)nc32)[C@H](O)[C@@H]1O)P(=O)(O)O` [Example 131, ((R)-2-(((2R,3S,4R,5R)-5-(6-chloro-4-((cyclopropylmethyl)amino)-1H-pyrazolo[3,4-d]pyrimidin-1-yl)-3,4-dihydroxytetrahydrofuran-2-yl)methoxy)-1-methoxypropan-2-yl)phosphonic acid], with ≤ 100 nM; and `CC(C)OC[C@](CO)(OC[C@H]1O[C@@H](n2ncc3c(NC4CCCC4)nc(Cl)nc32)[C@H](O)[C@@H]1O)P(=O)(O)O` [Example 114, ((R)-2-(((2R,3S,4R,5R)-5-(6-chloro-4-(cyclopentylamino)-1H-pyrazolo[3,4-d]pyrimidin-1-yl)-3,4-dihydroxytetrahydrofuran-2-yl)methoxy)-1-hydroxy-3-isopropoxypropan-2-yl)phosphonic acid], with ≤ 100 nM. Then `CC(COCCO)(OC[C@H]1O[C@@H](n2ncc3c(NC4CCCC4)nc(Cl)nc32)[C@H](O)[C@@H]1O)P(=O)(O)O` (stereo partly drawn) [Example 85, (2-(((2R,3S,4R,5R)-5-(6-Chloro-4-(cyclopentylamino)-1H-pyrazolo[3,4-d]pyrimidin-1-yl)-3,4-dihydroxytetrahydrofuran-2-yl)methoxy)-1-(2-hydroxyethoxy)propan-2-yl)phosphonic acid], with ≤ 100 nM; and `CC(CO)(OC[C@H]1O[C@@H](n2ncc3c(N[C@H]4CC[C@@H]5CCC[C@@H]54)nc(Cl)nc32)[C@H](O)[C@@H]1O)P(=O)(O)O` (stereo partly drawn) [Example 141, (2-(((2R,3S,4R,5R)-5-(6-chloro-4-(((1S,3aS,6aS)-octahydropentalen-1-yl)amino)-1H-pyrazolo[3,4-d]pyrimidin-1-yl)-3,4-dihydroxytetrahydrofuran-2-yl)methoxy)-1-hydroxypropan-2-yl)phosphonic acid], with ≤ 100 nM; and `O=P(O)(O)COC[C@H]1O[C@@H](n2nnc3c(NC4CCCC4)nc(Cl)cc32)[C@H](O)[C@@H]1O` [Example 20, ((((2R,3S,4R,5R)-5-(6-chloro-4-(cyclopentylamino)-1H-[1,2,3]triazolo[4,5-c]pyridin-1-yl)-3,4-dihydroxytetrahydrofuran-2-yl)methoxy)methyl)phosphonic acid], with 100 to 1000 nM. As to `CS(=O)(=O)CC(CO)(OC[C@H]1O[C@@H](n2ncc3c(NC4CCCC4)nc(Cl)nc32)[C@H](O)[C@@H]1O)P(=O)(O)O` (stereo partly drawn) [Example 107, (2-(((2R,3S,4R,5R)-5-(6-chloro-4-(cyclopentylamino)-1H-pyrazolo[3,4-d]pyrimidin-1-yl)-3,4-dihydroxytetrahydrofuran-2-yl)methoxy)-1-hydroxy-3-(methylsulfonyl)propan-2-yl)phosphonic acid], the 50% inhibitory concentration (IC50) was ≤ 100 nM.

`O=P(O)(O)C(CO)(CO)OC[C@H]1O[C@@H](n2ncc3c(N[C@@H]4CCc5ccccc54)nc(Cl)nc32)[C@H](O)[C@@H]1O` [Example 113, (2-(((2R,3S,4R,5R)-5-(6-chloro-4-(((R)-2,3-dihydro-1H-inden-1-yl)amino)-1H-pyrazolo[3,4-d]pyrimidin-1-yl)-3,4-dihydroxytetrahydrofuran-2-yl)methoxy)-1,3-dihydroxypropan-2-yl)phosphonic acid]: the IC50 was ≤ 100 nM. As to `C[C@@](CS(C)(=O)=O)(OC[C@H]1O[C@@H](n2ncc3c(NC4CCCC4)nc(Cl)nc32)[C@H](O)[C@@H]1O)P(=O)(O)O` [Example 74, ((R)-2-(((2R,3S,4R,5R)-5-(6-chloro-4-(cyclopentylamino)-1H-pyrazolo[3,4-d]pyrimidin-1-yl)-3,4-dihydroxytetrahydrofuran-2-yl)methoxy)-1-(methylsulfonyl)propan-2-yl)phosphonic acid], the half-inhibitory concentration (IC50) was ≤ 100 nM.

The record behind these values is US11325938B2, “CD73 inhibitors” (ORIC Pharmaceuticals, Inc., priority 2018, dated 2022).
